Results as given in patent US8017585B2, “CXCR4 antagonist and use thereof” (priority 2002, dated 2011).
Numbered stars: 1 amine (or outer) side, 2 acyl side, 3 side chain; on linkers, the order of the positions; unused ones are H or OH. Bridge positions count the residues as written; N and C are the ends. Square brackets hold non-standard residues; d marks the D form. Peptide text beside a SMILES is read from it. * marks the point of attachment. X4 = CN(C)C(=N[C@@H](CCCNC(=N)N)C(=O)*)N(C)C; Pentanoyl(5-guanidino) = NC(N)=NCCCCC(=O)*; 2Nal = N[C@@H](Cc1ccc2ccccc2c1)C(=O)O; X1 = N=C(N)NCCC[C@H](NC(=N)N)C(=O)*; Glutaryl = O=C(CCCC(=O)[*:2])[*:1]; Benzoyl(4-F) = O=C(c1ccc(F)cc1)*; dCit = NC(=O)NCCC[C@@H](N)C(=O)O; Cit = NC(=O)NCCC[C@H](N)C(=O)O; Suc = O=C(CCC(=O)[*:2])[*:1]; X5 = O=C(c1ccccc1F)*; Ava = NCCCCC(=O)O

biological target: T1, CXCR4 receptor (Homo sapiens, UniProt P61073); experiment: Inhibition of 125I-CXCL12 binding to CXCR4 receptor on Jurkat cells; conditions: Table 1, 125I-CXCL12, 1 hour at room temperature, compounds as acetate salt, read-out: IC50 (nM), inhibitory activity against CXCL12 binding to CXCR4 receptor
T1 construct: 50 μL of Jurkat human T-cell leukemia cells (6×10^6 cells/mL) suspended in buffer; endogenous in cells; host or cells: Jurkat human T-cell leukemia cells
T1 sequence (P61073 whole entry): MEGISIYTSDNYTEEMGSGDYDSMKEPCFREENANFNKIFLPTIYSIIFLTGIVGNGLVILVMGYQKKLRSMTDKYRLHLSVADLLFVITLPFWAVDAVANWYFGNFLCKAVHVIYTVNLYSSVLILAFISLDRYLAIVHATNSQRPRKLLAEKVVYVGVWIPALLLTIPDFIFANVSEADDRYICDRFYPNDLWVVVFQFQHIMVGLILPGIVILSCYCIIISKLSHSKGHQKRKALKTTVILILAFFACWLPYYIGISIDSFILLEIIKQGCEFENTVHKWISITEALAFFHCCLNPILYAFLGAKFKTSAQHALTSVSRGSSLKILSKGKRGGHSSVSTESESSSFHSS
Procedure: After reaction, suction was made toward the reaction solution by 96 well GF/C filter plate, and each well's radioactivity was measured by top count. As the radioactivity index of 100% when the test compound was not added, and 0% when 100 nM of non-radioisotope-labeled CXCL12 was added, the inhibitory activity of each test compound was measured.

Row | Compound | IC50 [nM]
1 | N=C(N)NCCC[C@H](NC(=O)[C@@H]1CSSC[C@H](NC(=O)[C@H](Cc2ccc3ccccc3c2)NC(=O)[C@H](CCC(=O)O)NC(=O)[C@@H](N)CCCNC(=N)N)C(=O)N[C@@H](Cc2ccc(O)cc2)C(=O)N[C@@H](CCCNC(=N)N)C(=O)N[C@@H](CCCCN)C(=O)N[C@H](CCCCN)C(=O)N2CCC[C@H]2C(=O)N[C@@H](Cc2ccc(O)cc2)C(=O)N[C@@H](CCCNC(=N)N)C(=O)N[C@@H](CCCNC(N)=O)C(=O)N1)C(=O)O [TE14002, H-Arg-Glu-Nal-Cys-Tyr-Arg-Lys-DLys-Pro-Tyr-Arg-Cit-Cys-Arg-OH] (H-RE[2Nal]CYRK[dK]PYR[Cit]CR-OH; disulfide 4-13) | 680
2 | CC(=O)N[C@@H](CCCNC(=N)N)C(=O)N[C@@H](CCCNC(=N)N)C(=O)N[C@@H](Cc1ccc2ccccc2c1)C(=O)N[C@H]1CSSC[C@@H](C(=O)N[C@@H](CCCNC(=N)N)C(N)=O)NC(=O)[C@H](CCCNC(N)=O)NC(=O)[C@H](CCCNC(=N)N)NC(=O)[C@H](Cc2ccc(O)cc2)NC(=O)[C@@H]2CCCN2C(=O)[C@@H](CCC(=O)O)NC(=O)[C@H](CCCCN)NC(=O)[C@H](CCCNC(N)=O)NC(=O)[C@H](Cc2ccc(O)cc2)NC1=O [TF1, Ac-Arg-Arg-Nal-Cys-Tyr-Cit-Lys-DGlu-Pro-Tyr-Arg-Cit-Cys-Arg-NH2] (Ac-RR[2Nal]CY[Cit]K[dE]PYR[Cit]CR-NH2; disulfide 4-13) | 11
3 | N=C(N)NCCC[C@H](NC(=O)[C@@H]1CSSC[C@H](NC(=O)[C@H](Cc2ccc3ccccc3c2)NC(=O)[C@H](CCCNC(=N)N)NC(=O)[C@H](CCCNC(=N)N)NC(=O)c2ccccc2F)C(=O)N[C@@H](Cc2ccc(O)cc2)C(=O)N[C@@H](CCCNC(N)=O)C(=O)N[C@@H](CCCCN)C(=O)N[C@H](CCC(=O)O)C(=O)N2CCC[C@H]2C(=O)N[C@@H](Cc2ccc(O)cc2)C(=O)N[C@@H](CCCNC(=N)N)C(=O)N[C@@H](CCCNC(N)=O)C(=O)N1)C(N)=O [TF6, 2F-benzoyl-Arg-Arg-Nal-Cys-Tyr-Cit-Lys-DGlu-Pro-Tyr-Arg-Cit-Cys-Arg-NH2] (X5-RR[2Nal]CY[Cit]K[dE]PYR[Cit]CR-NH2; disulfide 4-13) | 3.9
4 | N=C(N)NCCC[C@H](NC(=O)[C@@H]1CSSC[C@H](NC(=O)[C@H](Cc2ccc3ccccc3c2)NC(=O)[C@H](CCCNC(=N)N)NC(=O)CCCCN)C(=O)N[C@@H](Cc2ccc(O)cc2)C(=O)N[C@@H](CCCNC(N)=O)C(=O)N[C@@H](CCCCN)C(=O)N[C@H](CCC(=O)O)C(=O)N2CCC[C@H]2C(=O)N[C@@H](Cc2ccc(O)cc2)C(=O)N[C@@H](CCCNC(=N)N)C(=O)N[C@@H](CCCNC(N)=O)C(=O)N1)C(N)=O [TF7, APA-Arg-Nal-Cys-Tyr-Cit-Lys-DGlu-Pro-Tyr-Arg-Cit-Cys-Arg-NH2] (H-[Ava]R[2Nal]CY[Cit]K[dE]PYR[Cit]CR-NH2; disulfide 4-13) | 5.7
5 | N=C(N)NCCC[C@H](NC(=O)[C@@H]1CSSC[C@H](NC(=O)[C@H](Cc2ccc3ccccc3c2)NC(=O)[C@H](CCCNC(=N)N)NC(=N)N)C(=O)N[C@@H](Cc2ccc(O)cc2)C(=O)N[C@@H](CCCNC(N)=O)C(=O)N[C@@H](CCCCN)C(=O)N[C@H](CCC(=O)O)C(=O)N2CCC[C@H]2C(=O)N[C@@H](Cc2ccc(O)cc2)C(=O)N[C@@H](CCCNC(=N)N)C(=O)N[C@@H](CCCNC(N)=O)C(=O)N1)C(N)=O [TF9, guanyl-Arg-Nal-Cys-Tyr-Cit-Lys-DGlu-Pro-Tyr-Arg-Cit-Cys-Arg-NH2] (X1-[2Nal]CY[Cit]K[dE]PYR[Cit]CR-NH2; disulfide 2-11) | 250
6 | N=C(N)NCCC[C@H](NC(=O)[C@@H]1CSSC[C@H](NC(=O)[C@H](Cc2ccc3ccccc3c2)NC(=O)[C@H](CCCNC(=N)N)NC(=O)CCC(=O)O)C(=O)N[C@@H](Cc2ccc(O)cc2)C(=O)N[C@@H](CCCNC(N)=O)C(=O)N[C@@H](CCCCN)C(=O)N[C@H](CCC(=O)O)C(=O)N2CCC[C@H]2C(=O)N[C@@H](Cc2ccc(O)cc2)C(=O)N[C@@H](CCCNC(=N)N)C(=O)N[C@@H](CCCNC(N)=O)C(=O)N1)C(N)=O [TF10, succinyl-Arg-Nal-Cys-Tyr-Cit-Lys-DGlu-Pro-Tyr-Arg-Cit-Cys-Arg-NH2] (Suc-R[2Nal]CY[Cit]K[dE]PYR[Cit]CR-NH2; disulfide 3-12) | 48

Further molecules by falling IC50, results first:

Row | IC50 [nM] | Compound
7 | 630 | N=C(N)NCCC[C@H](NC(=O)[C@@H]1CSSC[C@H](NC(=O)[C@H](Cc2ccc3ccccc3c2)NC(=O)[C@H](CCCNC(=N)N)NC(=O)CCCC(=O)O)C(=O)N[C@@H](Cc2ccc(O)cc2)C(=O)N[C@@H](CCCNC(N)=O)C(=O)N[C@@H](CCCCN)C(=O)N[C@H](CCC(=O)O)C(=O)N2CCC[C@H]2C(=O)N[C@@H](Cc2ccc(O)cc2)C(=O)N[C@@H](CCCNC(=N)N)C(=O)N[C@@H](CCCNC(N)=O)C(=O)N1)C(N)=O [TF11, glutaryl-Arg-Nal-Cys-Tyr-Cit-Lys-DGlu-Pro-Tyr-Arg-Cit-Cys-Arg-NH2] (Glutaryl-R[2Nal]CY[Cit]K[dE]PYR[Cit]CR-NH2; disulfide 3-12)
8 | 9.6 | CN(C)C(=N[C@@H](CCCNC(=N)N)C(=O)N[C@@H](CCCNC(=N)N)C(=O)N[C@@H](Cc1ccc2ccccc2c1)C(=O)N[C@H]1CSSC[C@@H](C(=O)N[C@@H](CCCNC(=N)N)C(N)=O)NC(=O)[C@H](CCCNC(N)=O)NC(=O)[C@H](CCCNC(=N)N)NC(=O)[C@H](Cc2ccc(O)cc2)NC(=O)[C@@H]2CCCN2C(=O)[C@@H](CCC(=O)O)NC(=O)[C@H](CCCCN)NC(=O)[C@H](CCCNC(N)=O)NC(=O)[C@H](Cc2ccc(O)cc2)NC1=O)N(C)C [TF3, TMguanyl-Arg-Arg-Nal-Cys-Tyr-Cit-Lys-DGlu-Pro-Tyr-Arg-Cit-Cys-Arg-NH2] (X4-R[2Nal]CY[Cit]K[dE]PYR[Cit]CR-NH2; disulfide 3-12)
9 | 9.3 | N=C(N)NCCC[C@H](NC(=O)[C@@H]1CSSC[C@H](NC(=O)[C@H](Cc2ccc3ccccc3c2)NC(=O)[C@H](CCCNC(=N)N)NC(=O)[C@@H](N)CCCNC(=N)N)C(=O)N[C@@H](Cc2ccc(O)cc2)C(=O)N[C@H](CCC(=O)O)C(=O)N[C@@H](CCCCN)C(=O)N[C@H](CCC(=O)O)C(=O)N2CCC[C@H]2C(=O)N[C@@H](Cc2ccc(O)cc2)C(=O)N[C@@H](CCCNC(=N)N)C(=O)N[C@@H](CCCNC(N)=O)C(=O)N1)C(N)=O [TE14013, H-Arg-Arg-Nal-Cys-Tyr-DGlu-Lys-DGlu-Pro-Tyr-Arg-Cit-Cys-Arg-NH2] (H-RR[2Nal]CY[dE]K[dE]PYR[Cit]CR-NH2; disulfide 4-13)
10 | 8.2 | N=C(N)NCCCCC(=O)N[C@@H](CCCNC(=N)N)C(=O)N[C@@H](Cc1ccc2ccccc2c1)C(=O)N[C@H]1CSSC[C@@H](C(=O)N[C@@H](CCCNC(=N)N)C(N)=O)NC(=O)[C@H](CCCNC(N)=O)NC(=O)[C@H](CCCNC(=N)N)NC(=O)[C@H](Cc2ccc(O)cc2)NC(=O)[C@@H]2CCCN2C(=O)[C@@H](CCC(=O)O)NC(=O)[C@H](CCCCN)NC(=O)[C@H](CCCNC(N)=O)NC(=O)[C@H](Cc2ccc(O)cc2)NC1=O [TF8, desamino-R-Arg-Nal-Cys-Tyr-Cit-Lys-DGlu-Pro-Tyr-Arg-Cit-Cys-Arg-NH2] ({Pentanoyl(5-guanidino)}-R[2Nal]CY[Cit]K[dE]PYR[Cit]CR-NH2; disulfide 3-12)
11 | 5.4 | N=C(N)NCCC[C@H](NC(=O)[C@@H]1CSSC[C@H](NC(=O)[C@H](Cc2ccc3ccccc3c2)NC(=O)[C@H](CCCNC(=N)N)NC(=O)[C@@H](N)CCCNC(=N)N)C(=O)N[C@@H](Cc2ccc(O)cc2)C(=O)N[C@H](CCC(=O)O)C(=O)N[C@@H](CCCCN)C(=O)N[C@H](CCCNC(N)=O)C(=O)N2CCC[C@H]2C(=O)N[C@@H](Cc2ccc(O)cc2)C(=O)N[C@@H](CCCNC(=N)N)C(=O)N[C@@H](CCCNC(N)=O)C(=O)N1)C(N)=O [TE14012, H-Arg-Arg-Nal-Cys-Tyr-DGlu-Lys-DCit-Pro-Tyr-Arg-Cit-Cys-Arg-NH2] (H-RR[2Nal]CY[dE]K[dCit]PYR[Cit]CR-NH2; disulfide 4-13)
12 | 3.3 | N=C(N)NCCC[C@H](NC(=O)[C@@H]1CSSC[C@H](NC(=O)[C@H](Cc2ccc3ccccc3c2)NC(=O)[C@H](CCCNC(=N)N)NC(=O)[C@H](CCCNC(=N)N)NC(=N)N)C(=O)N[C@@H](Cc2ccc(O)cc2)C(=O)N[C@@H](CCCNC(N)=O)C(=O)N[C@@H](CCCCN)C(=O)N[C@H](CCC(=O)O)C(=O)N2CCC[C@H]2C(=O)N[C@@H](Cc2ccc(O)cc2)C(=O)N[C@@H](CCCNC(=N)N)C(=O)N[C@@H](CCCNC(N)=O)C(=O)N1)C(N)=O [TF2, guanyl-Arg-Arg-Nal-Cys-Tyr-Cit-Lys-DGlu-Pro-Tyr-Arg-Cit-Cys-Arg-NH2] (X1-R[2Nal]CY[Cit]K[dE]PYR[Cit]CR-NH2; disulfide 3-12)
13 | 2.9 | N=C(N)NCCC[C@H](NC(=O)[C@@H]1CSSC[C@H](NC(=O)[C@H](Cc2ccc3ccccc3c2)NC(=O)[C@H](CCCNC(=N)N)NC(=O)[C@@H](N)CCCNC(=N)N)C(=O)N[C@@H](Cc2ccc(O)cc2)C(=O)N[C@@H](CCCNC(N)=O)C(=O)N[C@@H](CCCCN)C(=O)N[C@H](CCC(=O)O)C(=O)N2CCC[C@H]2C(=O)N[C@@H](Cc2ccc(O)cc2)C(=O)N[C@@H](CCCNC(=N)N)C(=O)N[C@@H](CCCNC(N)=O)C(=O)N1)C(N)=O [TE14011, H-Arg-Arg-Nal-Cys-Tyr-Cit-Lys-DGlu-Pro-Tyr-Arg-Cit-Cys-Arg-NH2] (H-RR[2Nal]CY[Cit]K[dE]PYR[Cit]CR-NH2; disulfide 4-13)
14 | 2.8 | N=C(N)NCCC[C@H](NC(=O)[C@@H]1CSSC[C@H](NC(=O)[C@H](Cc2ccc3ccccc3c2)NC(=O)[C@H](CCCNC(=N)N)NC(=O)[C@H](CCCNC(=N)N)NC(=O)c2ccc(F)cc2)C(=O)N[C@@H](Cc2ccc(O)cc2)C(=O)N[C@@H](CCCNC(N)=O)C(=O)N[C@@H](CCCCN)C(=O)N[C@H](CCC(=O)O)C(=O)N2CCC[C@H]2C(=O)N[C@@H](Cc2ccc(O)cc2)C(=O)N[C@@H](CCCNC(=N)N)C(=O)N[C@@H](CCCNC(N)=O)C(=O)N1)C(N)=O [TF5, 4F-benzoyl-Arg-Arg-Nal-Cys-Tyr-Cit-Lys-DGlu-Pro-Tyr-Arg-Cit-Cys-Arg-NH2] ({Benzoyl(4-F)}-RR[2Nal]CY[Cit]K[dE]PYR[Cit]CR-NH2; disulfide 4-13)
